# Measured values published in patent US12077503B2, “Substituted cyclic amides and their use as herbicides” (FMC CORPORATION, priority 2015, dated 2024).
# Legend:
# Format in all cases: in vivo
# Conditions in all cases: scale 0 to 100
# [1] = test system: oilseed rape (Brassica napus); assay: Test D preemergence
# How it was run: (§1)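 Percent control (0–100) estimated by eye relative to untreated plants roughly 21 d after preemergence treatment of seeds in silt loam soil.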
# [2] = test system: radish, wild (wild radish, Raphanus raphanistrum); assay: Test D preemergence
# How it was run: as §1
# [3] = test system: deadnettle (henbit deadnettle, Lamium amplexicaule); assay: Test D preemergence
# How it was run: as §1
# Kochia (Kochia scoparia) [4] = assay: Test D preemergence
# How it was run: as §1
# [5] = test system: foxtail, green (green foxtail, Setaria viridis); assay: Test D preemergence
# How it was run: as §1
# [6] = test system: mustard, wild (wild mustard, Sinapis arvensis); assay: Test D preemergence
# How it was run: as §1
# [7] = test system: wheat, winter (winter wheat, Triticum aestivum); assay: Test D preemergence
# How it was run: as §1
# [8] = test system: barley, winter (winter barley Hordeum vulgare); assay: Test D preemergence
# How it was run: as §1
# [9] = test system: field poppy (Papaver rhoeas); assay: Test D preemergence
# How it was run: as §1
# [10] = test system: buckwheat, wild (wild buckwheat, Polygonum convolvulus); assay: Test D preemergence
# How it was run: as §1
# [11] = test system: blackgrass (Alopecurus myosuroides); assay: Test D preemergence
# How it was run: as §1
# Kochia (Kochia scoparia) [12] = assay: Test E preemergence
# How it was run: (§2)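 Seeds sown in silt loam treated preemergence, or plants 2 to 18 cm tall in peat-based potting medium treated postemergence, with test chemical in a non-phytotoxic solvent mixture containing surfactant. Kept in greenhouse 14 to 21 d, then visually rated against controls on a 0–100 scale (0 no effect, 100 complete control).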
# [13] = test system: morningglory (Ipomoea coccinea); assay: Test E preemergence
# How it was run: as §2
# [14] = test system: dayflower, VA (Virginia dayflower, Commelina virginica); assay: Test E preemergence
# How it was run: as §2
# [15] = test system: arrowleaf Sida (Sida rhombifolia); assay: Test E preemergence
# How it was run: as §2
# [16] = test system: beggarticks (hairy beggarticks, Bidens pilosa); assay: Test E preemergence
# How it was run: as §2
structure (smiles),measurement,setting,value
CN1CC(c2ccc(C(F)(F)F)cc2)C(C(=O)Nc2ccccc2S(C)(=O)=O)C1=O (stereo not shown) [Compound 624],Plant response rating: Oilseed Rape,[1]; 31 g ai/ha,0
same,Plant response rating: Oilseed Rape,[1]; 62 g ai/ha,25
same,Plant response rating: Oilseed Rape,[1]; 125 g ai/ha,35
same,Plant response rating: Oilseed Rape,[1]; 250 g ai/ha,65
same,"Plant response rating: Radish, Wild",[2]; 31 g ai/ha,0
same,"Plant response rating: Radish, Wild",[2]; 125 g ai/ha,0
same,"Plant response rating: Radish, Wild",[2]; 250 g ai/ha,75
same,Plant response rating: Deadnettle,[3]; 31 g ai/ha,0
same,Plant response rating: Deadnettle,[3]; 62 g ai/ha,0
same,Plant response rating: Deadnettle,[3]; 125 g ai/ha,25
same,Plant response rating: Deadnettle,[3]; 250 g ai/ha,70
same,Plant response rating: Kochia,Kochia (Kochia scoparia) [4]; 31 g ai/ha,0
same,Plant response rating: Kochia,Kochia (Kochia scoparia) [4]; 62 g ai/ha,5
same,Plant response rating: Kochia,Kochia (Kochia scoparia) [4]; 125 g ai/ha,15
same,Plant response rating: Kochia,Kochia (Kochia scoparia) [4]; 250 g ai/ha,85
same,"Plant response rating: Foxtail, Green",[5]; 31 g ai/ha,40
same,"Plant response rating: Foxtail, Green",[5]; 62 g ai/ha,50
same,"Plant response rating: Foxtail, Green",[5]; 125 g ai/ha,90
same,"Plant response rating: Foxtail, Green",[5]; 250 g ai/ha,95
same,"Plant response rating: Mustard, Wild",[6]; 31 g ai/ha,15
same,"Plant response rating: Mustard, Wild",[6]; 62 g ai/ha,30
same,"Plant response rating: Mustard, Wild",[6]; 250 g ai/ha,70
same,"Plant response rating: Wheat, Winter",[7]; 31 g ai/ha,0
same,"Plant response rating: Wheat, Winter",[7]; 62 g ai/ha,0
same,"Plant response rating: Wheat, Winter",[7]; 125 g ai/ha,5
same,"Plant response rating: Wheat, Winter",[7]; 250 g ai/ha,10
same,"Plant response rating: Barley, Winter",[8]; 31 g ai/ha,0
same,"Plant response rating: Barley, Winter",[8]; 62 g ai/ha,0
same,"Plant response rating: Barley, Winter",[8]; 125 g ai/ha,0
same,"Plant response rating: Barley, Winter",[8]; 250 g ai/ha,40
same,Plant response rating: Field Poppy,[9]; 31 g ai/ha,15
same,Plant response rating: Field Poppy,[9]; 62 g ai/ha,25
same,Plant response rating: Field Poppy,[9]; 125 g ai/ha,100
same,Plant response rating: Field Poppy,[9]; 250 g ai/ha,100
same,"Plant response rating: Buckwheat, Wild",[10]; 31 g ai/ha,0
same,"Plant response rating: Buckwheat, Wild",[10]; 62 g ai/ha,0
same,"Plant response rating: Buckwheat, Wild",[10]; 125 g ai/ha,15
same,"Plant response rating: Buckwheat, Wild",[10]; 250 g ai/ha,50
same,Plant response rating: Blackgrass,[11]; 31 g ai/ha,5
same,Plant response rating: Blackgrass,[11]; 62 g ai/ha,5
same,Plant response rating: Blackgrass,[11]; 125 g ai/ha,15
same,Plant response rating: Blackgrass,[11]; 250 g ai/ha,85
same,Plant response rating: Kochia,Kochia (Kochia scoparia) [12]; 31 g ai/ha,0
same,Plant response rating: Kochia,Kochia (Kochia scoparia) [12]; 125 g ai/ha,0
same,Plant response rating: Kochia,Kochia (Kochia scoparia) [12]; 250 g ai/ha,30
same,Plant response rating: Morningglory,[13]; 31 g ai/ha,10
same,Plant response rating: Morningglory,[13]; 62 g ai/ha,20
same,Plant response rating: Morningglory,[13]; 125 g ai/ha,50
same,Plant response rating: Morningglory,[13]; 250 g ai/ha,40
same,"Plant response rating: Dayflower, VA",[14]; 31 g ai/ha,0
same,"Plant response rating: Dayflower, VA",[14]; 62 g ai/ha,0
same,"Plant response rating: Dayflower, VA",[14]; 125 g ai/ha,30
same,"Plant response rating: Dayflower, VA",[14]; 250 g ai/ha,50
same,Plant response rating: Arrowleaf Sida,[15]; 31 g ai/ha,50
same,Plant response rating: Arrowleaf Sida,[15]; 62 g ai/ha,50
same,Plant response rating: Arrowleaf Sida,[15]; 125 g ai/ha,40
same,Plant response rating: Arrowleaf Sida,[15]; 250 g ai/ha,60
same,Plant response rating: Beggarticks,[16]; 31 g ai/ha,20
same,Plant response rating: Beggarticks,[16]; 62 g ai/ha,25
same,Plant response rating: Beggarticks,[16]; 125 g ai/ha,40
same,Plant response rating: Beggarticks,[16]; 250 g ai/ha,50
